Reference: patent publication US6489165B2, “Chondrocyte-like cells useful for tissue engineering and methods” (The Regents of the University of California, priority 1997, dated 2002)

Assays:
Human dermal fibroblasts [1] = settings: 20 mM lactate; cited from earlier work
[2] = system: Human neonatal foreskin fibroblasts (HFFs); assay: Immunohistochemical detection of matrix proteins in micromass cultures; type: cell-based
Procedure: Human neonatal foreskin fibroblasts (HFFs) were cultured in high density micromasses (2.0×10^7 cells/ml in 10 μl) and treated with 40 mM lactic acid and 200 nM staurosporine for a period of 24 hours as previously described by Examples 1 and 2. After the initial culture period, the cells were maintained in chemically defined medium consisting of minimum essential medium supplemented with a 1× mixture of Insulin-Transferrin-Selenium (Life Technologies, Gibco BRL, Gaithersburg, Md.), 4.5 g/l glucose, 10 mM β-glycerophosphate, and antibiotics. Dermal fibroblasts isolated from donor tissue were similarly cultured. Additionally, dermal fibroblasts were seeded on three-dimensional polymer scaffolds composed of a non-woven polyglycolic acid (PGA) (Davis and Geck, Danbury, Conn.) mesh reinforced in a dilute solution of 100 kDa poly(L-lactic acid) (PLLA) (Polysciences, Warrington, Pa.).
(§1) The production of sulfated proteoglycans was assessed by staining with 1% Alcian blue dye (pH 1.0), while monoclonal antibodies to collagen types I (Rockland, Gilbertsville, Pa.) and II (CIICl, Developmental Studies Hybridoma Bank, Iowa City, Iowa), aggrecan (Chemicon, Temecula, Calif.), and cartilage link protein (9/30/8-A-4, DSHB) were used for immuno-histochemical detection employing the Histostain-Plus king (Zymed, South San Francisco, Calif.) with a DAB substrate for final visualization. The expression of type I collagen and transforming growth factor-β1 (TGF-β1) was detected by northern hybridization. Cell-polymer composites were analyzed by scanning electron microscopy and were embedded in glycol methacrylate, sectioned, and stained with hematoxylin and eosin.

Human dermal fibroblasts [3] = assay: Northern hybridization of total cellular RNA with DIG-labeled probes; type: cell-based
Procedure: Gene Expression. […] The expression of TGF-β1 was also examined in cells cultured under identical conditions. […] Human dermal fibroblasts were cultured in monolayer without or with 40 mM lactate or in micromass cultures without or with 40 mM lactate at a density of 3.0×10^5 cell/ml for 24 hours. Total cellular RNA extracted using the Ultraspec isolation system (Biotecx Laboratories, Inc., Houston, Tex.) and fractionated by formaldehyde-agarose gel electrophoresis was hybridized with DIG-labeled probes to human chondroitin sulfate proteoglycan (aggrecan) core protein and TGF-β1. An equal amount of RNA (5 μg) was loaded in each lane and 28s ribosomal RNA served as an internal control.
Human dermal fibroblasts were cultured in monolayer without or with 40 mM lactate or in micromass cultures without or with 40 mM lactate at a density of 2.0×10^5 cell/ml for 24 hours. Total cellular RNA extracted using the Ultraspec isolation system (Biotecx Laboratories, Inc., Houston, Tex.) and fractionated by formaldehyde-agarose gel electrophoresis was hybridized with a DIG-labeled probe to human type I collagen. An equal amount of RNA (5 μg) was loaded in each lane and 28s ribosomal RNA served as an internal control.
Human dermal fibroblasts were seeded in micromass cultures at a density of 2.0×10^5 cells/ml for 24 hours in the presence of 40 mM lactate and varying concentrations of the protein kinase C inhibitors, staurosporine (0, 50, 100, 150, and 200 nM in lanes 1-5, respectively). Total cellular RNA extracted using the Ultraspec isolation system (Biotecx Laboratories, Inc., Houston, Tex.) and fractionated by formaldehyde-agarose gel electrophoresis was hybridized with DIG-labeled probes to human chondroitin sulfate proteoglycan (aggrecan) core protein and type I collagen. An equal amount RNA (5 μg) was loaded in each lane and 28s ribosomal RNA served as an internal control.
as §1

Human dermal fibroblasts [4] = assay: Alcian blue staining of sulfated proteoglycan in monolayer or micromass cultures; type: cell-based; settings: high density micromass, 40 mM lactate, 24 hours, vs untreated and monolayer cultures, P<0.05
Procedure: (§2) Experiments were designed to examine the effects of functional hypoxia and high density culture conditions on the phenotype of dermal fibroblasts. Human dermal fibroblasts obtained from neonatal foreskin samples were cultured in high density micromass cultures. Briefly, a 10 μl drop of a cell solution at a concentration of 2.0×10^4-4.0×10^4 cells/μl was plated in a 24-well polystyrene tissue culture dish. The cultures were incubated for one hour at 37° C., 5% CO2 to allow the cells to adhere to the bottom of the wells and to enhance cell:cell interactions. Following incubation, the cells were flooded with 1 ml of medium (bringing the final concentration to 2.0×10^5 to 4.0×10^5 cells/ml) containing exogenous factors that promote differentiation along the chondrogenic pathway. Cultures were made functionally hypoxic by the addition of lactate (10-40 mM) to the culture medium. The cells were cultured for a period of 24 hours.
Matrix Deposition. Treated micromass cultures synthesized highly negatively charged sulfated proteoglycan aggregates, as detected using histological and biochemical methods. […] The intensity of Alcian blue staining from guanidine-HCl extracts was measured using a microplate reader at a wavelength of 595 nm.
The expression of type I collagen and transforming growth factor-β1 (TGF-β1) was detected by northern hybridization.

Human dermal fibroblasts [5] = assay: [35S]-sulfate incorporation (normalized to [3H]-thymidine) in micromass cultures; type: cell-based
Procedure: Thus, human dermal fibroblasts were seeded in monolayer or micromass cultures at a density of 2.0×10^5 cell/ml for 24 hours and left untreated or treated with 40 mM lactate to induce hypoxia. Cultures were labeled with [^3H]-thymidine at 2 μCi/ml and Na2^35SO4 at 5 μCi/ml 24 hours prior to harvest. Relative levels of [^35S]-sulfate uptake (ratio of [^35S]-sulfate to [^3H]-thymidine) were determined by liquid scintillation counting of soluble cell extracts using a dual label DPM counting program. […] Human dermal fibroblasts were seeded in high density micromass cultures at a density of 2.0×10^5 cell/ml, treated with lactate at varying concentrations (0-80 mM) for a 24 hour period, and labeled with [^35S]-sulfate.

Human dermal fibroblasts [6] = assay: Cell morphology in high density micromass cultures by microscopy; type: cell-based
Procedure: as §2
Human neonatal foreskin fibroblasts (HFFs) were cultured in high density micromasses (2.0×10^7 cells/ml in 10 μl) and treated with 40 mM lactic acid and 200 nM staurosporine for a period of 24 hours as previously described by Examples 1 and 2. […]

[7] = system: fibroblast micromass cultures; assay: Cell viability by direct microscopic observation; type: cell-based, human; settings: staurosporine alone without lactate priming, at otherwise effective doses
Source text: Accordingly, practice of the invention includes treating the cells with the second agent so as to allow a PKA-dependent antagonistic pathway to predominate and to drive chondrogenic differentiation. Suitable chondrogenic differentiation agents include Bisindolylmaleimide I and calphostin C. PKA activators such as dibutyryl cAMP and adenylate cyclase activators (which results in cAMP production and PKA activity) like forskolin may also be effective. A preferred such agent is staurosporine (a protein kinase inhibitor to which PKC is most sensitive), preferably in a range of 150-200 nM.

[8] = whole mount micromass cultures, after three days
[9] = micromass 3.0×10^5 cell/ml, 40 mM lactate, 24 hours, vs untreated and monolayer
[10] = micromass 2.0×10^5 cell/ml, lactate 0-80 mM, 24 hours

Structure (SMILES) | hyaluronan synthesis (Human dermal fibroblasts [1]) | type I collagen immunostaining ([2]; micromass cultures) | aggrecan immunostaining [2, 8] | cartilage link protein immunostaining [2, 8] | TGF-β1 expression levels (Human dermal fibroblasts [3]; HFFs on PGA/PLLA discs, all groups) | expression of type I collagen (Human dermal fibroblasts [3]; HFFs on PGA/PLLA discs, treated vs untreated control) | type I collagen gene expression (Human dermal fibroblasts [3]; micromass 2.0×10^5 cell/ml, 40 mM lactate, 24 hours) | TGF-β1 gene expression (Human dermal fibroblasts [3]; [9]) | aggrecan core protein gene expression (Human dermal fibroblasts [3]; [9]) | intensity of Alcian blue staining (sulfated proteoglycan content), 595 nm (Human dermal fibroblasts [4]) | relative [35S]-sulfate incorporation (ratio to [3H]-thymidine) (Human dermal fibroblasts [5]; high density micromass, 40 mM lactate, 24 hours, vs corresponding cultures, P<0.05) | lactate concentration at which sulfate uptake peaks (Human dermal fibroblasts [5]; [10]) [mM] | sulfate uptake versus lactate concentration (Human dermal fibroblasts [5]; [10]) | fibroblast outgrowth from the micromass cultures (Human dermal fibroblasts [6]; 40 mM lactate as compared to 20 mM lactate) | cell viability [7] | aggrecan core protein gene expression (Human dermal fibroblasts [3]; micromass, 40 mM lactate plus 150 nM staurosporine, 24 hours) | aggrecan core protein gene expression (Human dermal fibroblasts [3]; micromass, 40 mM lactate plus 200 nM staurosporine, 24 hours) | type I collagen gene expression (Human dermal fibroblasts [3]; micromass, 40 mM lactate plus staurosporine 50-200 nM (all supplemented cultures), 24 hours) | sulfate incorporation (Human dermal fibroblasts [5]; staurosporine alone without lactate priming, at otherwise effective doses) | visible effect in lactate-treated micromass cultures (Human dermal fibroblasts [6]; staurosporine about 5-20 nM)
CC(O)C(=O)O (centres unmarked) [lactate] | increased | only on the periphery | Minimal staining | Minimal staining | remained similar in all groups | greater in untreated control cultures | noticeable decrease | marked increase | marked increase | significantly greater degree of staining | Significantly greater levels | 20 to 40 | dose-dependent increase | less fibroblast outgrowth |  |  |  |  |  | 
CN[C@@H]1C[C@H]2O[C@@](C)([C@@H]1OC)n1c3ccccc3c3c4c(c5c6ccccc6n2c5c31)C(=O)NC4 [staurosporine] |  |  |  |  |  |  |  |  |  |  |  |  |  |  | deleterious effect | notable increase | notable increase | marked decrease | decreased levels | no visible effect
